Results from ChEMBL document CHEMBL1201862, “PubChem BioAssay data set” (2004).
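Dose response: 5 concentrations. Exposure: 48 h. Format: 96-well plates. Endpoint: linear interpolation; highest concentration if not reached. GI50 marks 50% less growth.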 The source made the active and inactive calls. Cut-off read from the data, not from the text of the source: active = GI50 up to about 1.1 µM and inactive = higher.

Legend:
Assay in all cases: inhibition of tumour cell growth, NCI panel, 48 h
A549 = tested on: A549
LXFL 529 = tested on: LXFL 529
OVCAR-4 = tested on: OVCAR-4
KM-20L2 = tested on: KM-20L2
OVCAR-3 = tested on: OVCAR-3
KM12 = tested on: KM12
M19-MEL = tested on: M19-MEL
NCI-H522 = tested on: NCI-H522
HCT-116 = tested on: HCT-116
OVCAR-5 = tested on: OVCAR-5
IGROV-1 = tested on: IGROV-1
A498 = tested on: A498
HOP-92 = tested on: HOP-92
SNB-75 = tested on: SNB-75
LOX IMVI = tested on: LOX IMVI
DMS-114 = tested on: DMS-114
SR = tested on: SR
TK-10 = tested on: TK-10
MOLT-4 = tested on: MOLT-4
786-0 = tested on: 786-0
RXF 631 = tested on: RXF 631
NCI-H226 = tested on: NCI-H226
UACC-62 = tested on: UACC-62
DLD-1 = tested on: DLD-1
COLO 205 = tested on: COLO 205
OVCAR-8 = tested on: OVCAR-8
M14 = tested on: M14
XF498 = tested on: XF498
CAKI-1 = tested on: CAKI-1
Malme-3M = tested on: Malme-3M
SF-268 = tested on: SF-268
SK-MEL-5 = tested on: SK-MEL-5
SNB-19 = tested on: SNB-19
CCRF-CEM = tested on: CCRF-CEM
SN12C = tested on: SN12C
HL-60 = tested on: HL-60
RXF 393 = tested on: RXF 393
HOP-18 = tested on: HOP-18
K562 = tested on: K562
SK-OV-3 = tested on: SK-OV-3
UO-31 = tested on: UO-31
HCT-15 = tested on: HCT-15
SF-539 = tested on: SF-539
HOP-62 = tested on: HOP-62
SF-295 = tested on: SF-295
HT-29 = tested on: HT-29
EKVX = tested on: EKVX
UACC-257 = tested on: UACC-257
NCI-H23 = tested on: NCI-H23
HCC 2998 = tested on: HCC 2998
ACHN = tested on: ACHN
SW-620 = tested on: SW-620
RPMI-8226 = tested on: RPMI-8226
NCI-H460 = tested on: NCI-H460
U-251 = tested on: U-251

Measured: GI50

CC1(C)CCc2cc3c(cc2O1)OCCC3=O
> 100 µM: HCT-15
inactive: A549 > 100 µM | LXFL 529 > 100 µM | OVCAR-4 > 100 µM | KM-20L2 > 100 µM | OVCAR-3 > 100 µM | KM12 > 100 µM | M19-MEL > 100 µM | NCI-H522 > 100 µM | HCT-116 > 100 µM | OVCAR-5 > 100 µM | IGROV-1 > 100 µM | A498 > 100 µM | HOP-92 > 100 µM | SNB-75 > 100 µM | LOX IMVI > 100 µM | DMS-114 70 µM | SR 58.1 µM | TK-10 > 100 µM | MOLT-4 > 100 µM | 786-0 > 100 µM | RXF 631 > 100 µM | NCI-H226 > 100 µM | UACC-62 > 100 µM | DLD-1 > 100 µM | COLO 205 > 100 µM | OVCAR-8 > 100 µM | M14 > 100 µM | XF498 > 100 µM | CAKI-1 92.7 µM | Malme-3M > 100 µM | SF-268 > 100 µM | SK-MEL-5 > 100 µM | SNB-19 > 100 µM | CCRF-CEM > 100 µM | SN12C > 100 µM | HL-60 95.1 µM | RXF 393 > 100 µM | HOP-18 > 100 µM | K562 > 100 µM | SK-OV-3 > 100 µM | UO-31 94.2 µM | SF-539 > 100 µM | HOP-62 > 100 µM | SF-295 > 100 µM | HT-29 > 100 µM | EKVX > 100 µM | UACC-257 > 100 µM | NCI-H23 > 100 µM | HCC 2998 > 100 µM | ACHN > 100 µM | SW-620 > 100 µM | RPMI-8226 96.2 µM | NCI-H460 > 100 µM | U-251 > 100 µM
